Earlier results in patent US8324203B2, “Azadecalin glucocorticoid receptor modulators” (Corcept Therapeutics, Inc., priority 2004, dated 2012).

Legend:
[1] = test system: patients with Cushing's syndrome
[2] = molecular target: GR (Homo sapiens, UniProt P04150)
GR, sequence (P04150 whole entry): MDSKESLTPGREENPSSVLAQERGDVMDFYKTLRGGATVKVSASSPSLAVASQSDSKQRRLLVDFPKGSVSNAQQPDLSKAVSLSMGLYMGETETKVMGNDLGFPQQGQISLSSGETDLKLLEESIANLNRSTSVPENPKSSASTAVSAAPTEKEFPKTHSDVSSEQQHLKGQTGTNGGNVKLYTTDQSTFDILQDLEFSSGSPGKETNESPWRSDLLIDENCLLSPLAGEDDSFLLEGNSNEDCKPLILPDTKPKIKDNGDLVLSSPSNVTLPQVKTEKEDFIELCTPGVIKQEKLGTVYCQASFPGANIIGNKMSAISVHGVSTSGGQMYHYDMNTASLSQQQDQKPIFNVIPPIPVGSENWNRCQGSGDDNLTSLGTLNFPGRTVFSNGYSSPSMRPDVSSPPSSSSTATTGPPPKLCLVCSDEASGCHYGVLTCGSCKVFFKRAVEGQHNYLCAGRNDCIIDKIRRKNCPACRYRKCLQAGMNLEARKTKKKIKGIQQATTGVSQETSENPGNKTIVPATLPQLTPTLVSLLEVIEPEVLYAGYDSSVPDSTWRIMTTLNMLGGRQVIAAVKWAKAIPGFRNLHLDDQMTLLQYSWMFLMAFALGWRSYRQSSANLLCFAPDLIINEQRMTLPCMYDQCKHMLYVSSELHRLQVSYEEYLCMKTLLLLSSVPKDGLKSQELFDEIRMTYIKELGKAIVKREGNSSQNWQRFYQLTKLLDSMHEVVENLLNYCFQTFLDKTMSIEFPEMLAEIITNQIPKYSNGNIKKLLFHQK

SMILES: CC#C[C@]1(O)CC[C@H]2[C@@H]3CCC4=CC(=O)CCC4=C3[C@@H](c3ccc(N(C)C)cc3)C[C@@]21C [mifepristone]
- effect on acute psychosis ([1]; 400 to 800 mg per day, severe Cushing Syndrome due to adrenal cancers and ectopic secretion of ACTH from lung cancer): useful in rapidly reversing acute psychosis
- effect on patients' conditions, including psychiatric status ([1]; Cushing's syndrome patients): improved the patients' conditions
- anti-glucocorticoid activity in humans [2]: effective anti-glucocorticoid agent in humans
